Numbering of substitutions follows the chain as printed.
How the values were obtained:
Assay in all cases: HPLC, […] nm; lactonase buffer kinetic assay (method of Thomas et al.)
Type in all cases: biochemical
Conditions in all cases: 30 °C; lactone hydrolysis
[1] = target: T1, Est816 (uncultured bacterium, UniProt Z9COY3ZA92, L122A, form not given)
T1 construct: full length, C-terminal 6xHis tag (pET-21b), E. coli BL21(DE3); catalytic triad S93, D214, H242
T1 sequence (Z9COY3ZA92 1-260 L122A): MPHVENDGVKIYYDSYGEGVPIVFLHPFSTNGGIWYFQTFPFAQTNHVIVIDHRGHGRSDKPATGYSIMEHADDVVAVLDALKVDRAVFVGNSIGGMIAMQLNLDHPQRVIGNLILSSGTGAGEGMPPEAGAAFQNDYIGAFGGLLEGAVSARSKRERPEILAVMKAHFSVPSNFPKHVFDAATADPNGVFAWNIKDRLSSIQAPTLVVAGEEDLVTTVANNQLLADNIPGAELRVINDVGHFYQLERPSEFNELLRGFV

[2] = target: T2, Est816 (uncultured bacterium, UniProt Z9COY3ZA92, P27G/F28N, form not given)
T2 construct: full length, C-terminal 6xHis tag (pET-21b), E. coli BL21(DE3); catalytic triad S93, D214, H242
T2 sequence (Z9COY3ZA92 1-260 P27G/F28N): T1 sequence (Z9COY3ZA92 1-260 L122A) with P27G, F28N, A122L

[3] = target: T3, Est816 (uncultured bacterium, UniProt Z9COY3ZA92, V216A/N238K, form not given)
T3 construct: full length, C-terminal 6xHis tag (pET-21b), E. coli BL21(DE3); catalytic triad S93, D214, H242
T3 sequence (Z9COY3ZA92 1-260 V216A/N238K): T1 sequence (Z9COY3ZA92 1-260 L122A) with A122L, V216A, N238K

[4] = target: T4, Est816 (uncultured bacterium, UniProt Z9COY3ZA92, A133V/K155N, form not given)
T4 construct: full length, C-terminal 6xHis tag (pET-21b), E. coli BL21(DE3); catalytic triad S93, D214, H242
T4 sequence (Z9COY3ZA92 1-260 A133V/K155N): T1 sequence (Z9COY3ZA92 1-260 L122A) with A122L, A133V, K155N

[5] = target: T5, Est816 (uncultured bacterium, UniProt Z9COY3ZA92, A133F/K155N/V216F, form not given)
T5 construct: full length, C-terminal 6xHis tag (pET-21b), E. coli BL21(DE3); catalytic triad S93, D214, H242
T5 sequence (Z9COY3ZA92 1-260 A133F/K155N/V216F): T1 sequence (Z9COY3ZA92 1-260 L122A) with A122L, A133F, K155N, V216F

[6] = target: T6, Est816 (uncultured bacterium, UniProt Z9COY3ZA92, V216A, form not given)
T6 construct: full length, C-terminal 6xHis tag (pET-21b), E. coli BL21(DE3); catalytic triad S93, D214, H242
T6 sequence (Z9COY3ZA92 1-260 V216A): T1 sequence (Z9COY3ZA92 1-260 L122A) with A122L, V216A

[7] = target: T7, Est816 (uncultured bacterium, UniProt Z9COY3ZA92, N238K, form not given)
T7 construct: full length, C-terminal 6xHis tag (pET-21b), E. coli BL21(DE3); catalytic triad S93, D214, H242
T7 sequence (Z9COY3ZA92 1-260 N238K): T1 sequence (Z9COY3ZA92 1-260 L122A) with A122L, N238K

CCCCCCCC(=O)NC1CCOC1=O (racemic) [C8-HSL, N-octanoyl-DL-homoserine lactone] was tested. Which Km [1] did it give?
Its Km is 105 ± 7.2 µM.

What about the Km [2] of the same compound?
Its Km is 3090 ± 198 µM.

And the Km [3]?
The Km was 1140 ± 101 µM.

And the Km [4]?
The Km was 3490 ± 146 µM.

What about the Km [5] of the same compound?
The Km was 759 ± 62.2 µM.

And the Km [6]?
The Km was 5800 ± 289 µM.

What about the Km [7] of the same compound?
The Km was 210 ± 15.5 µM.
